From ChEMBL document CHEMBL3507680, “University of Dundee, Gates Library screen for HepG2 cell viability” come the findings set out here.

The nature of this series: Human HepG2 cell viability assay in 384 well format. The series is classed as toxicity, cell-based. Also on record: dose 125 nL, time 70.5 hour; concentration not given beside the values. To be noted: HepG2 cells, read-out: Inhibition.

Regarding `Cc1noc(CNC(=O)CN(C)c2nc3c(F)cccc3s2)n1`, the cytotoxicity at 70.5 h is 28.5%.

Regarding `Cc1noc(CNC(=O)CN(C)c2nc3c(C)ccc(C)c3s2)n1`, the cytotoxicity at 70.5 h worked out at 12.2%.

With `Cc1nccn1-c1ccc(=O)n(CCNC(=O)c2c(F)cccc2Cl)n1`, the cytotoxicity at 70.5 h is -6.16%.

For `Cc1nccn1-c1ccc(=O)n(CCNC(=O)c2ccccn2)n1`, the cytotoxicity at 70.5 h was -6.46%.

Consider `Cc1nccn1-c1ccc(=O)n(CCNC(=O)c2cccs2)n1`, for which the cytotoxicity at 70.5 h was -11.7%.

With `COc1ccc(-n2nnc(C(N)=O)n2)cc1`, the cytotoxicity at 70.5 h is -7.17%.

In the case of `CN1CCCN(C(=O)c2nnn(-c3ccc(C(F)(F)F)cc3)n2)CC1`, the cytotoxicity at 70.5 h is -4.86%.

As for `CCC(C)NC(=O)c1nnn(-c2ccc(Br)cc2)n1` (configuration not stated), the cytotoxicity at 70.5 h stood at 5.21%.

With `COCC(C)NC(=O)c1nnn(-c2ccc(Br)cc2)n1` (configuration not stated), the cytotoxicity at 70.5 h amounted to 10.9%.

For the compound `O=C(NCC1CCCCC1)c1nnn(-c2ccc(Br)cc2)n1`, the cytotoxicity at 70.5 h is -6.14%.

Consider `O=C(NCC(F)(F)F)c1ccc(-n2cccn2)nn1`, for which the cytotoxicity at 70.5 h worked out at 5.82%.

As to `COc1ccccc1C(O)Cn1cc(C(=O)NCC2CC2)nn1` (configuration not stated), the cytotoxicity at 70.5 h was -2.27%.

In the case of `Cc1nnc(C2CCN(C(=O)c3ccc4nccnc4c3)CC2)s1`, the cytotoxicity at 70.5 h was -8.52%.

Turning to `Cn1c(C(F)(F)F)nn(CCNC(=O)Nc2ccccc2F)c1=O`, the cytotoxicity at 70.5 h is -7.97%.

In the case of `Cn1c(C(F)(F)F)nn(CCNC(=O)Nc2ccccc2Cl)c1=O`, the cytotoxicity at 70.5 h came out at 25.1%.

Consider `CC(C)c1nnc(C2CCN(CC(=O)Nc3cccnc3)CC2)o1`, for which the cytotoxicity at 70.5 h was -5.94%.

As for `CN(C)S(=O)(=O)N1CCC(c2nnc(C(F)(F)F)o2)CC1`, the cytotoxicity at 70.5 h is 30.8%.

Regarding `Cn1nc(C2CCN(CC(=O)NC3CC3)CC2)n(-c2ccccc2)c1=O`, the cytotoxicity at 70.5 h was -8.96%.

On to `O=C(Cn1cccc(S(=O)(=O)N2CCCC2)c1=O)c1ccccc1Cl`, for which the cytotoxicity at 70.5 h was -8.77%.

Regarding `COC(=O)N1CCc2ccccc2C1C(=O)NCc1ccccn1` (configuration not stated), the cytotoxicity at 70.5 h was found to be 0.0153%.

With `COC(=O)N1CCc2ccccc2C1C(=O)NCc1ccco1` (configuration not stated), the cytotoxicity at 70.5 h was -10.1%.

For the compound `COC(=O)N1CCc2ccccc2C1C(=O)NCc1cccs1` (configuration not stated), the cytotoxicity at 70.5 h is -6.75%.

Take `COC(=O)N1CCc2ccccc2C1C(=O)NCc1ccncc1` (configuration not stated): the cytotoxicity at 70.5 h was -3.87%.

`COC(=O)N1CCc2ccccc2C1C(=O)NCc1nc(C)no1` (configuration not stated): the cytotoxicity at 70.5 h was -7.1%.

With `O=C(NC1CCN(c2ccc(-c3ccccc3F)nn2)C1)c1cc[nH]n1` (configuration not stated), the cytotoxicity at 70.5 h was -12.8%.

For the compound `O=C(Cn1ccc2ccccc21)Nc1cc(N2CCCC2)ncn1`, the cytotoxicity at 70.5 h is 3.21%.

In the case of `CCOc1ccccc1NC(=O)Nc1cc(N2CCCC2)ncn1`, the cytotoxicity at 70.5 h came to 1.9%.

Regarding `Cc1cc(=O)n(CCNC(=O)c2ccccc2Cl)cn1`, the cytotoxicity at 70.5 h was 4.36%.

Regarding `Cc1cc(=O)n(CCNS(=O)(=O)c2cccc(C(F)(F)F)c2)cn1`, the cytotoxicity at 70.5 h was -8.24%.

For `Cc1cc(=O)n(CCNS(=O)(=O)c2ccc(F)c(Cl)c2)cn1`, the cytotoxicity at 70.5 h is -4.51%.

On to `CCc1cc(=O)n(CCNC(=O)Nc2ccc(OC(F)(F)F)cc2)cn1`, for which the cytotoxicity at 70.5 h was -3.46%.

For the compound `Cc1ncn(CCNC(=O)Nc2ccc(F)c(Cl)c2)c(=O)c1C`, the cytotoxicity at 70.5 h is -3.86%.

As to `O=C(c1ccco1)N(CC(F)(F)F)C1CCOCC1`, the cytotoxicity at 70.5 h was -7.66%.

Take `O=C(C1=COCCO1)N1CC(Oc2nc3c(C(F)(F)F)cccc3s2)C1`: the cytotoxicity at 70.5 h stood at 10.3%.

Regarding `CN(C)C(CNC(=O)NCCOc1ccccc1)c1ccco1` (configuration not stated), the cytotoxicity at 70.5 h was determined as 13%.

In the case of `COc1ccc(OC)c(-c2cc(C(=O)NCC3(CO)CC3)n(C)n2)c1`, the cytotoxicity at 70.5 h is -5.05%.

For `NC(=O)Cc1csc(NC(=O)C2CSCCC(=O)N2)n1` (configuration not stated), the cytotoxicity at 70.5 h is 1.67%.

On to `O=C(O)CC(CC(=O)NCCc1cccs1)c1cccs1` (configuration not stated), for which the cytotoxicity at 70.5 h was found to be 3.06%.

`O=C(O)CC(CC(=O)N(Cc1ccsc1)C1CC1)c1cccs1` (configuration not stated): the cytotoxicity at 70.5 h turned out to be 20.8%.

As to `Cc1ccc(S(=O)(=O)NCCc2ccoc2)s1`, the cytotoxicity at 70.5 h is -9.94%.

In the case of `N#Cc1cccnc1OC1CCN(S(=O)(=O)c2ccc(F)c(Cl)c2)CC1`, the cytotoxicity at 70.5 h was -14.2%.

Regarding `N#Cc1ccc(OC2CCN(C(=O)c3cncc(Br)c3)CC2)nc1`, the cytotoxicity at 70.5 h was -9.99%.

As to `N#Cc1ccc(OC2CCN(C(=O)Cc3cccs3)CC2)nc1`, the cytotoxicity at 70.5 h was -0.57%.

Turning to `O=C(CCC(=O)N1CCC(Oc2ncccc2Br)CC1)c1ccccc1`, the cytotoxicity at 70.5 h is -9.39%.

Regarding `Cc1cccc(OC2CCN(C(=O)Cn3ccc4ccccc43)CC2)n1`, the cytotoxicity at 70.5 h was -6.3%.

As for `Cc1cccc(OC2CCN(C(=O)c3ccc4ncsc4c3)CC2)n1`, the cytotoxicity at 70.5 h worked out at 0.229%.

`O=C(Nc1cnc(Oc2ccccc2)nc1)C1CC1`: the cytotoxicity at 70.5 h is -2.39%.

Turning to `O=C(c1ccccc1F)N1CCN(c2ccc(-n3cccc3)nn2)CC1`, the cytotoxicity at 70.5 h is -8.46%.

Take `O=C(c1cccnc1)N1CCN(c2ccc(-n3cccc3)nn2)CC1`: the cytotoxicity at 70.5 h amounted to 0.575%.

Consider `Cc1ccc(S(=O)(=O)NCCNc2cc(-n3cccc3)ncn2)c(C)c1`, for which the cytotoxicity at 70.5 h is -0.584%.

For the compound `CS(=O)(=O)N1CCCC12CCCN(C(=O)c1ccnnc1)C2` (configuration not stated), the cytotoxicity at 70.5 h is -11.3%.

For `COCC1c2nnn(CC3CC3)c2CCN1C(=O)c1sccc1C` (configuration not stated), the cytotoxicity at 70.5 h was -11.5%.

With `COCC1c2nnn(CC3CC3)c2CCN1C(=O)c1cc(C)on1` (configuration not stated), the cytotoxicity at 70.5 h is -12.7%.

With `Cc1ccoc1C(=O)N1CCc2ncnc(-c3cnn(C)c3)c2CC1`, the cytotoxicity at 70.5 h was 24.7%.

On to `Cc1noc(C2CCC3(CCN(C(=O)c4ccnnc4)CC3)O2)n1` (configuration not stated), for which the cytotoxicity at 70.5 h is -0.131%.

As to `CC(=O)N1CCc2ncc(CNC(=O)C3CCC3)n2CC1`, the cytotoxicity at 70.5 h is -2.29%.

As for `CCS(=O)(=O)N1Cc2ncn(CC3CC3)c2C(COC)C1` (configuration not stated), the cytotoxicity at 70.5 h is -0.679%.

Regarding `CCN1CCc2cc(C(=O)N(C)C)c(NCC3CC3)nc2CC1`, the cytotoxicity at 70.5 h came to 2.86%.

Consider `CN1CC2(CCN(C(=O)C3CCC3)CC2)COc2ccccc2S1(=O)=O`, for which the cytotoxicity at 70.5 h was -4.42%.

For `CCN1CC2(CCN(C(=O)N(C)C)CC2)COc2ccccc2S1(=O)=O`, the cytotoxicity at 70.5 h is 4.83%.

Regarding `Cc1cc(C(=O)N2CCc3ncnc(-c4cnn(C)c4)c3CC2)c(C)o1`, the cytotoxicity at 70.5 h was -7.85%.

For the compound `COCC1CN(CC2CC2)Cc2ncn(CC3CC3)c21` (configuration not stated), the cytotoxicity at 70.5 h was determined as 2.41%.

Regarding `Cc1noc(C2CCC3(CCN(C(=O)c4ncccn4)CC3)O2)n1` (configuration not stated), the cytotoxicity at 70.5 h was 2.54%.

Turning to `O=C1CCCN1Cc1ncn2c1CN(C(=O)C1CC=CC1)CCC2`, the cytotoxicity at 70.5 h is -5.43%.

As to `O=C(NCC1CCOCC1)[C@@H]1C[C@@H]2[C@@H](CCN2Cc2ccoc2)O1`, the cytotoxicity at 70.5 h was 0.123%.

Consider `Cc1noc(C2CCC3(CCN(C(=O)c4ccncn4)CC3)O2)n1` (configuration not stated), for which the cytotoxicity at 70.5 h stood at 3.42%.

Take `CN(C)C(=O)c1cc2c(nc1NCC1CC1)CCN(CC1CC1)CC2`: the cytotoxicity at 70.5 h amounted to 5.16%.

For the compound `O=C(NCC1CC1)[C@H]1CC[C@@H]2[C@@H](CCN2Cc2nccs2)O1`, the cytotoxicity at 70.5 h turned out to be 1.44%.

With `CCn1ncc2c1C(COC)CN(Cc1ccc(C)o1)C2` (configuration not stated), the cytotoxicity at 70.5 h turned out to be 2.21%.

Take `CN(C)CCN1CCN(CC2CC2)c2ncccc2C1`: the cytotoxicity at 70.5 h was -3.26%.

On to `Cc1nccc([C@H]2C[C@@H]3CCN(S(C)(=O)=O)C[C@H]3O2)n1`, for which the cytotoxicity at 70.5 h is -0.795%.

As for `CCOC[C@@H]1CC[C@H]2[C@H](CCN2C(=O)c2ccncc2F)O1`, the cytotoxicity at 70.5 h is -1.37%.

Consider `CNC(=O)N1CCC2(CC1)CC[C@@]1(C(=O)NC)CN(S(C)(=O)=O)C[C@@H]21`, for which the cytotoxicity at 70.5 h is -0.00397%.

Turning to `Cc1nccc([C@@H]2C[C@@H]3CCN(S(=O)(=O)N(C)C)C[C@H]3O2)n1`, the cytotoxicity at 70.5 h turned out to be 1.05%.

As for `Cc1ccc(NC2CCN(C(=O)Cc3c(C)noc3C)CC2)nn1`, the cytotoxicity at 70.5 h was -2.99%.

For `O=C(c1ccc(N2CCOCC2)nc1)N1CCCC(n2ccnc2)C1` (configuration not stated), the cytotoxicity at 70.5 h is -3.02%.

With `Cc1ccc(NC2CCN(C(=O)c3cc(C)no3)CC2)nn1`, the cytotoxicity at 70.5 h was 0.395%.

For the compound `COc1ccc(CN2CCC3(CC(=O)N(c4cccc(F)c4)C3)C2)cc1` (configuration not stated), the cytotoxicity at 70.5 h is -10.4%.

For `O=C(Nc1cnccn1)[C@H]1CC[C@@H]2[C@@H](CCN2Cc2ccoc2)O1`, the cytotoxicity at 70.5 h is 25.7%.

Take `Cc1ccc2c(n1)N(CCn1cccn1)CCN(S(C)(=O)=O)C2`: the cytotoxicity at 70.5 h stood at 27.2%.

For `O=C(NCc1cnc2n1CCN(CC1CC1)C2)C1CC1`, the cytotoxicity at 70.5 h came out at 28%.

For `CN1CC2(CCN(CC3CC3)CC2)COc2ccccc2S1(=O)=O`, the cytotoxicity at 70.5 h is -1.33%.

On to `O=C(NCc1cccs1)[C@H]1CC[C@@H]2[C@@H](CCN2Cc2ccoc2)O1`, for which the cytotoxicity at 70.5 h is 2.32%.

For the compound `COCC(=O)N1CCN(CCn2cccn2)c2nc(C)ccc2C1`, the cytotoxicity at 70.5 h amounted to 0.00132%.

In the case of `CN(C)C(=O)CN1CCC2(CC1)COc1ccccc1S(=O)(=O)N(C)C2`, the cytotoxicity at 70.5 h was determined as 0.16%.

Consider `O=C(NCc1cnc2n1CCN(Cc1nccs1)CC2)C1CCC1`, for which the cytotoxicity at 70.5 h is -2.78%.

Turning to `COCC1CN(Cc2ccc(C)s2)Cc2nnn(C)c21` (configuration not stated), the cytotoxicity at 70.5 h was found to be 2.8%.

With `Cc1ccc(CN2CCc3ncc(CNC(=O)C4CCC4)n3CC2)o1`, the cytotoxicity at 70.5 h was -2.7%.

Turning to `Cc1ccc(CN2Cc3nnn(C)c3C(COCC(=O)N(C)C)C2)s1` (configuration not stated), the cytotoxicity at 70.5 h was -8.72%.

As for `Cc1ccc(CN2Cc3nnn(C)c3C(COCC3CC3)C2)s1` (configuration not stated), the cytotoxicity at 70.5 h was determined as 4.45%.

As to `Cc1csc(CN2C[C@@H]3COC[C@]3(COCC(=O)N(C)C)C2)n1`, the cytotoxicity at 70.5 h is -3.08%.

`CC(C)COC[C@H]1CC[C@H]2[C@H](CCN2C(=O)c2ccncc2F)O1`: the cytotoxicity at 70.5 h was -0.218%.

On to `COc1ccc(CN2Cc3nnn(C)c3C(COCCN(C)C)C2)cc1` (configuration not stated), for which the cytotoxicity at 70.5 h amounted to 4.07%.

As to `Cc1nc(CN2CC[C@H](OCC3CC3)[C@@H]2Cc2cccnc2)cs1`, the cytotoxicity at 70.5 h was -1.82%.

On to `CN(C)CCOCC1CN(Cc2ccccn2)Cc2nnn(C)c21` (configuration not stated), for which the cytotoxicity at 70.5 h turned out to be 0.965%.

Turning to `CN(C)CCN1CCN(Cc2nccs2)Cc2cccnc21`, the cytotoxicity at 70.5 h was determined as 2.78%.

With `CN(C)CCN1CCN(Cc2cccs2)Cc2cccnc21`, the cytotoxicity at 70.5 h was -0.769%.
